Data published in patent US9879303B2, “Chromogenic glucuronidase substrates and uses” (Glycosynth Limited, priority 2013, dated 2018).
Where a name gives a salt, the structure may show the parent alone.

System: E. coli clinical isolates
Test: screen of strains in broth medium containing FAC
Type: cell-based
Design: key to colour: Red, Green, Black or Purple mean strong colour; Red, Green, Black or Purple mean strong colour; Red, Green, Black or Purple mean strong colour; Red, Green, Black or Purple mean strong colour; +/− means less colour than strong; Tr means a trace of colour, less than +/−; — means no colour
Details: for colour: 37° C. 18 hours
Source text: In order to obtain a fuller picture of the sensitivity of the substrates, they were screened with 100 different clinical isolates of E. coli in a liquid medium containing FAC. The isolates were chosen at random from the Microbiology Department, Freeman Hospital, Newcastle Upon Tyne, UK. The effectiveness of the new substrates was compared with three other media which all contained indoxyl-β-D-glucuronides. One was a commercial medium, CPS ID 3 (bioMérieux SA, Lyon, France). […] This medium was employed as a control. Among the β-D-glucuronidase producing strains of E. coli there is a large variation in the quantity of the enzyme produced and it is almost certain that the CPS ID 3 medium has been rigorously optimised to allow good growth of all the target organisms and maximum expression of the target enzymes. Therefore, two indoxyl glucuronides, X-β-D-glucuronide CHA salt and Rose-β-D-glucuronide CHA salt were also tested in a simple agar medium to allow a direct comparison of the sensitivity of these Indoxyl glucuronides when used in a medium that has not been optimised for the growth of the target organism. The comparison of the results for Rose-β-D-glucuronide and the CPS ID 3 medium was of particular significance as the commercial medium also uses Rose-β-D-glucuronide for the detection of E. coli. For consistency, the four glucuronides were all chosen as their CHA salts. As already stated, it is not anticipated that the salt form is critical to their performance. Currently. X-β-D-glucuronide is often used as either the CHA salt or the sodium salt. Brenner and colleagues [K. P. Brenner et al, Appl. Environ. Microbiol., 59, 3534-3544, (1993)] found no difference in the performance of the CHA and sodium salt forms with their application using indoxyl-β-D-glucuronide, neither in respect of colour development nor in the recovery of E. coli.
The two indoxyl glucuronides used produce insoluble endpoints following hydrolysis, as does the CPS ID 3 medium. It was therefore necessary to test these two substrates on agar plates. In contrast, catechol-β-D-glucuronide (1) and DHN-β-D-glucuronide (2b) give much more soluble endpoints best suited to liquid media and were therefore tested in a broth medium. Each broth was prepared using proteose peptone (Oxoid, Basingstoke, UK) (2 g), NaCl (1 g) and FAC (100 mg) in DI water (180 mL). This mixture was autoclaved and cooled to room temperature before being dispensed into bijoux (100×1.8 mL). Catechol β-D-glucuronide CHA salt (1) or DHN-β-D-glucuronide CHA salt (2b) (60 mg) were each dissolved in water (20 mL) and filtered to sterilize before being aseptically dispensed into successive bijoux (0.2 mL) containing the broth solution. The broth/substrate solutions were then inoculated with bacterial suspensions made up to 0.5 McFarland standard (2 μL per bijoux). X-β-D-glucuronide CHA salt (Glycosynth Ltd, Warrington, UK) (10 mg) was dissolved in NMP (200 μL). Rose-β-D-glucuronide CHA salt (Glycosynth Ltd, Warrington, UK) (20 mg) was dissolved in NMP (200 μL). These solutions were then added to Columbia agar (Oxoid, Basingstoke, UK) (100 mL) and inoculated with bacterial suspensions made up to 0.5 McFarland standard (1 μL). The plates and broths were incubated at 37° C. for 18 hours in air.

[1] = 100 E. coli strains after 18 h incubation, broth

SMILES: O=C(O)C1OC(Oc2ccccc2O)C(O)C(O)C1O [Compound 1, Catechol β-D-Glucuronide CHA Salt]
- % Sensitivity [1]: 83%
- Negative strains [1]: 17
- Positive strains [1]: 83
- colour (E. coli 260262P, broth): Black
- colour (E. coli 260280Z, broth): Black
- colour (E. coli 260310H, broth): Black
- colour (E. coli 260313A, broth): —
- colour (E. coli 260316T, broth): —
- colour (E. coli 260327V, broth): Black
- colour (E. coli 260330Y, broth): Black
- colour (E. coli 260333P, broth): —
- colour (E. coli 260345F, broth): Black
- colour (E. coli 260348K, broth): Black
- colour (E. coli 260354W, broth): Black
- colour (E. coli 260364H, broth): Black
- colour (E. coli 260370C, broth): Black
- colour (E. coli 260375E, broth): Black
- colour (E. coli 260390B, broth): —
- colour (E. coli 260396Z, broth): Black
- colour (E. coli 260398Q, broth): Black
- colour (E. coli 260400N, broth): —
- colour (E. coli 260401Q, broth): Black
- colour (E. coli 260402H, broth): Black
- colour (E. coli 260404W, broth): Black
- colour (E. coli 260405P, broth): Black
- colour (E. coli 260406A, broth): —
- colour (E. coli 260406Y, broth): Black
- colour (E. coli 260407F, broth): Black
- colour (E. coli 260408C, broth): Black
- colour (E. coli 260411Z, broth): Black
- colour (E. coli 260412Q, broth): Black
- colour (E. coli 260414H, broth): Black
- colour (E. coli 260415Y, broth): Black
- colour (E. coli 260416W, broth): Black
- colour (E. coli 260417P, broth): Black
- colour (E. coli 260422Y, broth): Black
- colour (E. coli 260424P, broth): Black
- colour (E. coli 260425A, broth): Black
- colour (E. coli 260426F, broth): Black
- colour (E. coli 260428T, broth): Black
- colour (E. coli 260431N, broth): Black
- colour (E. coli 260432E, broth): Black
- colour (E. coli 260433H, broth): Black
- colour (E. coli 260434Y, broth): Black
- colour (E. coli 260435W, broth): Black
- colour (E. coli 260436P, broth): Black
- colour (E. coli 260437A, broth): —
- colour (E. coli 260438F, broth): Black
- colour (E. coli 260439C, broth): Black
- colour (E. coli 260440S, broth): Black
- colour (E. coli 260441G, broth): Black
- colour (E. coli 260458Y, broth): Black
- colour (E. coli 260459W, broth): Black
- colour (E. coli 260463D, broth): Black
- colour (E. coli 260464G, broth): Black
- colour (E. coli 260471B, broth): —
- colour (E. coli 260478N, broth): —
- colour (E. coli 260479Q, broth): Black
- colour (E. coli 260480M, broth): Black
- colour (E. coli 260481J, broth): Black
- colour (E. coli 260483R, broth): —
- colour (E. coli 260485D, broth): Black
- colour (E. coli 260486L, broth): Black
- colour (E. coli 260492J, broth): Black
- colour (E. coli 260494B, broth): Black
- colour (E. coli 260495R, broth): Black
- colour (E. coli 260497D, broth): Black
- colour (E. coli 260502G, broth): Black
- colour (E. coli 260503Z, broth): Black
- colour (E. coli 260504N, broth): Black
- colour (E. coli 260505Q, broth): —
- colour (E. coli 260506E, broth): Black
- colour (E. coli 260508Y, broth): Black
- colour (E. coli 260509W, broth): Black
- colour (E. coli 260510R, broth): Black
- colour (E. coli 260511X, broth): Black
- colour (E. coli 260514G, broth): —
- colour (E. coli 260515Z, broth): Black
- colour (E. coli 260521S, broth): Black
- colour (E. coli 260522Z, broth): Black
- colour (E. coli 260532S, broth): Black
- colour (E. coli 260533G, broth): Black
- colour (E. coli 260536Q, broth): Black
- colour (E. coli 260537E, broth): —
- colour (E. coli 260538H, broth): —
- colour (E. coli 260539Y, broth): Black
- colour (E. coli 260541R, broth): Black
- colour (E. coli 260545G, broth): Black
- colour (E. coli 260547N, broth): Black
- colour (E. coli 260548Q, broth): Black
- colour (E. coli 260549E, broth): Black
- colour (E. coli 260553X, broth): —
- colour (E. coli 260554D, broth): Black
- colour (E. coli 260555L, broth): Black
- colour (E. coli 260563B, broth): Black
- colour (E. coli 260564R, broth): Black
- colour (E. coli 260578D, broth): —
- colour (E. coli 2603121P, broth): —
- colour (E. coli 2604399E, broth): Black
- colour (E. coli O157 non-toxigenic, broth): —
- colour of positive solutions (broth with FAC, in words): greyish-black solutions, sometimes with black flakes
